Source: EPA's CvTdb concentration-time database

Experiments:
Test in all cases: concentration in plasma after dosing
Rat [1] = conditions: 20 min; dosed: Bromochloroacetic acid; 10 mg/kg; oral; Male; Harlan Sprague Dawley
Rat [2] = conditions: 0.25 h; dosed: Bromochloroacetic acid; 10 mg/kg; oral; Male; Harlan Sprague Dawley
Rat [3] = conditions: 0.75 h; dosed: Bromochloroacetic acid; 40 mg/kg; oral; Female; Harlan Sprague Dawley
Rat [4] = conditions: dosed: Bromochloroacetic acid, 10 mg/kg, oral, Male, Harlan Sprague Dawley
Rat [5] = conditions: 20 min; dosed: Bromochloroacetic acid; 10 mg/kg; oral; Male; Harlan Sprague Dawley; remark: listed apart in the source
Rat [6] = conditions: 0.75 h; dosed: Bromochloroacetic acid; 40 mg/kg; oral; Female; Harlan Sprague Dawley; remark: listed apart in the source
Rat [7] = conditions: 0.75 h; dosed: Bromochloroacetic acid; 40 mg/kg; oral; Female; Harlan Sprague Dawley; remark: listed apart in the source
Rat [8] = conditions: dosed: Bromochloroacetic acid, 40 mg/kg, oral, Female, Harlan Sprague Dawley
Rat [9] = conditions: dosed: Bromochloroacetic acid, 10 mg/kg, oral, Male, Harlan Sprague Dawley; remark: listed apart in the source
Rat [10] = conditions: 20 min; dosed: Bromochloroacetic acid; 10 mg/kg; oral; Male; Harlan Sprague Dawley; remark: listed apart in the source
Rat [11] = conditions: dosed: Bromochloroacetic acid, 10 mg/kg, oral, Male, Harlan Sprague Dawley; remark: listed apart in the source
Rat [12] = conditions: dosed: Bromochloroacetic acid, 10 mg/kg, oral, Male, Harlan Sprague Dawley; remark: listed apart in the source
Rat [13] = conditions: dosed: Bromochloroacetic acid, 10 mg/kg, oral, Male, Harlan Sprague Dawley; remark: listed apart in the source
Rat [14] = conditions: dosed: Bromochloroacetic acid, 40 mg/kg, oral, Female, Harlan Sprague Dawley; remark: listed apart in the source
Rat [15] = conditions: dosed: Bromochloroacetic acid, 40 mg/kg, oral, Female, Harlan Sprague Dawley; remark: listed apart in the source
Rat [16] = conditions: 5 min; dosed: Bromochloroacetic acid; 40 mg/kg; oral; Female; Harlan Sprague Dawley
Rat [17] = conditions: 0.25 h; dosed: Bromochloroacetic acid; 10 mg/kg; oral; Male; Harlan Sprague Dawley; remark: listed apart in the source
Rat [18] = conditions: dosed: Bromochloroacetic acid, 10 mg/kg, oral, Male, Harlan Sprague Dawley; remark: listed apart in the source
Rat [19] = conditions: 0.75 h; dosed: Bromochloroacetic acid; 40 mg/kg; oral; Female; Harlan Sprague Dawley; remark: listed apart in the source
Rat [20] = conditions: dosed: Bromochloroacetic acid, 40 mg/kg, oral, Female, Harlan Sprague Dawley; remark: listed apart in the source
Rat [21] = conditions: dosed: Bromochloroacetic acid, oral, Harlan Sprague Dawley
Rat [22] = conditions: dosed: Bromochloroacetic acid, 10 mg/kg, oral, Male, Harlan Sprague Dawley; remark: listed apart in the source
Rat [23] = conditions: dosed: Bromochloroacetic acid, 10 mg/kg, oral, Male, Harlan Sprague Dawley; remark: listed apart in the source
Rat [24] = conditions: dosed: Bromochloroacetic acid, 40 mg/kg, oral, Female, Harlan Sprague Dawley; remark: listed apart in the source
Rat [25] = conditions: dosed: Bromochloroacetic acid, 10 mg/kg, oral, Male, Harlan Sprague Dawley; remark: listed apart in the source
Rat [26] = conditions: dosed: Bromochloroacetic acid, 40 mg/kg, oral, Female, Harlan Sprague Dawley; remark: listed apart in the source
Rat [27] = conditions: dosed: Bromochloroacetic acid, 40 mg/kg, oral, Female, Harlan Sprague Dawley; remark: listed apart in the source
Rat [28] = conditions: dosed: Bromochloroacetic acid, 10 mg/kg, oral, Male, Harlan Sprague Dawley; remark: listed apart in the source
Rat [29] = conditions: dosed: Bromochloroacetic acid, 40 mg/kg, oral, Female, Harlan Sprague Dawley; remark: listed apart in the source
Rat [30] = conditions: dosed: Bromochloroacetic acid, 10 mg/kg, oral, Male, Harlan Sprague Dawley; remark: listed apart in the source
Rat [31] = conditions: 0.75 h; dosed: Bromochloroacetic acid; 40 mg/kg; oral; Female; Harlan Sprague Dawley; remark: listed apart in the source
Rat [32] = conditions: dosed: Bromochloroacetic acid, 40 mg/kg, oral, Female, Harlan Sprague Dawley; remark: listed apart in the source
Rat [33] = conditions: 20 min; dosed: Bromochloroacetic acid; 10 mg/kg; oral; Male; Harlan Sprague Dawley; remark: listed apart in the source
Rat [34] = conditions: dosed: Bromochloroacetic acid, 40 mg/kg, oral, Female, Harlan Sprague Dawley; remark: listed apart in the source
Rat [35] = conditions: dosed: Bromochloroacetic acid, 40 mg/kg, oral, Female, Harlan Sprague Dawley; remark: listed apart in the source
Rat [36] = conditions: dosed: Bromochloroacetic acid, 10 mg/kg, oral, Male, Harlan Sprague Dawley; remark: listed apart in the source
Rat [37] = conditions: dosed: Bromochloroacetic acid, 40 mg/kg, oral, Female, Harlan Sprague Dawley; remark: listed apart in the source
Rat [38] = conditions: dosed: Bromochloroacetic acid, 40 mg/kg, oral, Female, Harlan Sprague Dawley; remark: listed apart in the source
Rat [39] = conditions: dosed: Bromochloroacetic acid, 10 mg/kg, oral, Male, Harlan Sprague Dawley; remark: listed apart in the source
Rat [40] = conditions: dosed: Bromochloroacetic acid, 10 mg/kg, oral, Male, Harlan Sprague Dawley; remark: listed apart in the source
Rat [41] = conditions: dosed: Bromochloroacetic acid, 10 mg/kg, oral, Male, Harlan Sprague Dawley; remark: listed apart in the source
Rat [42] = conditions: dosed: Bromochloroacetic acid, 10 mg/kg, oral, Male, Harlan Sprague Dawley; remark: listed apart in the source
Rat [43] = conditions: dosed: Bromochloroacetic acid, 40 mg/kg, oral, Female, Harlan Sprague Dawley; remark: listed apart in the source
Rat [44] = conditions: 20 min; dosed: Bromochloroacetic acid; 10 mg/kg; oral; Male; Harlan Sprague Dawley; remark: listed apart in the source
Rat [45] = conditions: dosed: Bromochloroacetic acid, 10 mg/kg, oral, Male, Harlan Sprague Dawley; remark: listed apart in the source
Rat [46] = conditions: dosed: Bromochloroacetic acid, 40 mg/kg, oral, Female, Harlan Sprague Dawley; remark: listed apart in the source
Rat [47] = conditions: dosed: Bromochloroacetic acid, 40 mg/kg, oral, Female, Harlan Sprague Dawley; remark: listed apart in the source
Rat [48] = conditions: dosed: Bromochloroacetic acid, 10 mg/kg, oral, Male, Harlan Sprague Dawley; remark: listed apart in the source

O=C(O)C(Cl)Br (stereo not given) [Bromochloroacetic acid]
Conditions	concentration in plasma [µg/mL]
Rat [1]	0.544
Rat [2]	0.576
Rat [3]	10.7
Rat [5]	0.663
Rat [6]	9.71
Rat [7]	11.8
Rat [10]	0.508
Rat [16]	2.99
Rat [17]	0.476
Rat [19]	10.3
Rat [31]	6.17
Rat [33]	0.733
Rat [44]	0.521

Conditions	concentration in plasma [µg/mL]
Rat [4], 1 h	0.299
Rat [4], 5 min	0.383
Rat [8], 1 h	8.65
Rat [8], 2 min	0.484
Rat [9], 1 h	0.196
Rat [9], 5 min	0.423
Rat [11], 0.25 h	0.643
Rat [11], 2 h	0.12
Rat [12], 0.75 h	0.485
Rat [12], 2 min	0.216
Rat [13], 1.5 h	0.0961
Rat [13], 10 min	0.241
Rat [14], 1.5 h	4.49
Rat [14], 5 min	2.54
Rat [15], 1 h	5.71
Rat [15], 2 min	0.985
Rat [18], 1 h	0.201
Rat [18], 5 min	0.21
Rat [20], 0.25 h	3.06
Rat [20], 3 h	1.88
Rat [22], 0.25 h	0.545
Rat [22], 3 h	0.0887
Rat [23], 1.5 h	0.155
Rat [23], 10 min	0.322
Rat [24], 1 h	7.5
Rat [24], 2 min	0.396
Rat [25], 1.5 h	0.238
Rat [25], 10 min	0.516
Rat [26], 4 h	1.06
Rat [26], 6 h	0.172
Rat [27], 2 h	3.92
Rat [27], 10 min	2.22
Rat [28], 1.5 h	0.122
Rat [28], 10 min	0.475
Rat [29], 1.5 h	5.29
Rat [29], 5 min	1.44
Rat [30], 0.75 h	0.225
Rat [30], 2 min	0.104
Rat [32], 0.25 h	5.81
Rat [32], 3 h	2.17
Rat [34], 1.5 h	6.54
Rat [34], 5 min	2.78
Rat [35], 1 h	7.66
Rat [35], 2 min	0.536
Rat [36], 1 h	0.224
Rat [36], 5 min	0.362
Rat [37], 1 h	9.33
Rat [37], 2 min	0.564
Rat [38], 4 h	2.01
Rat [38], 20 min	3.31
Rat [39], 1 h	0.164
Rat [39], 5 min	0.255
Rat [40], 0.75 h	0.218
Rat [40], 2 min	0.104
Rat [41], 0.75 h	0.283
Rat [41], 2 min	0.0717
Rat [42], 0.25 h	0.727
Rat [42], 2 h	0.136
Rat [43], 2 h	4.71
Rat [43], 10 min	2.24
Rat [45], 1.5 h	0.107
Rat [45], 10 min	0.494
Rat [46], 6 h	0.201
Rat [46], 20 min	5.74
Rat [47], 1.5 h	7.41
Rat [47], 5 min	4.13
Rat [48], 0.75 h	0.284
Rat [48], 2 min	0.0801

Rat [21]
Conditions	concentration in plasma [µg/mL]
0.25 h, 10 mg/kg, Male	0.543
0.25 h, 40 mg/kg, Female	5.91
0.75 h, 10 mg/kg, Male	0.177
0.75 h, 40 mg/kg, Female	7.63
1 h, 10 mg/kg, Male	0.187
1 h, 40 mg/kg, Female	6.9
1.5 h, 10 mg/kg, Male	0.166
1.5 h, 40 mg/kg, Female	4.86
2 h, 10 mg/kg, Male	0.0955
2 h, 40 mg/kg, Female	2.94
2 min, 10 mg/kg, Male	0.0832
3 h, 40 mg/kg, Female	1.99
4 h, 40 mg/kg, Female	3.16
5 min, 10 mg/kg, Male	0.214
5 min, 40 mg/kg, Female	1.77
10 min, 10 mg/kg, Male	0.168
10 min, 40 mg/kg, Female	3.42
20 min, 10 mg/kg, Male	0.364
20 min, 40 mg/kg, Female	4.39
